Assay results taken from US20040038861A1, “Methods and compositions for normalizing lipid levels in mammalian tissues” (priority 2001, published 2004).

Key:
[1] = tested on: soleus muscle; assay: Triglyceride and free fatty acid content (enzymatic) in isolated soleus muscle of rats fed high fat diets; type: cell-based, rat; conditions: diet with 40% added lard, 100 nM amylin or CGRP-1, 4.4 μM norepinephrine, 1 h
Text: (§1) High-fatted rats. Groups of male Wistar rats (n=21/diet) were ad libitum fed high-fat diets containing standard rat chow to which 40% (w/w) of lard, corn oil or olive oil had been added, from the time of weaning (age=21 d) until sacrifice at 50 d. Triacylglycerol from lard contains predominantly saturated fatty acids; that from corn oil […], see Table 4.
(§2) Soleus muscle tissue isolation and incuhation.Immersion and incubation media was Krebs-Henseleit buffer (KHB) containing 118.5 mM NaCl, 4.75 mM KCl, 1.18 mM MgSO4.7H2O and KH2PO4, 24.8 mM NaHCO3, 2.54 mM CaCl2 and 10 mM d-glucose. The medium was gassed continuously with 95% O2/5% CO2. […] Soleus muscles of both legs were excised keeping the tissue immersed in KHB; muscles were separated into two equal parts and transferred to the incubation flasks. At the completion of incubation the muscles were snap frozen in liquid nitrogen, and then trimmed of connective tissue and all visible fat. The muscle strips were stored at −80° C. until analysis.
(§3) Lipid extraction and chromatographic separation of fatty acids. Total lipids were extracted from muscle strips by a modified version of the method of Bligh and Dyer (Gorski et al., 1988, Mol & Cell Biochem 178:113-118; 1. Bligh et al., 1959, Can J Biochem Physiol 37: 911-917). Muscles were homogenised (Soniprep 150) in 0.4 ml of deionised water. Solvent volumes used herein were varied according to the water content of the muscle (ie muscle weight) as described (Bligh & Dyer, supra). 2 vols of methanol containing 0.005% butylated hydroxy toluene (BHT) and 1 vol chloroform were added to the muscle suspension. Homogenates were vortexed at maximum speed for 2 minutes and centrifuged at 2,500 g for 4 minutes. Supernatants were recovered and pellets re-extracted with 2 vol methanol, 1 vol chloroform and 0.8 vol 0.2 N HCl. Residues were vortexed for 2 min then centrifuged at 3,500 g for 3 min. After centrifugation the combined supernatants were diluted with 2v each of milli Q water and chloroform and the phases separated by centrifugation at 3,500 g for 4 minutes. The lower chloroform phase was recovered, neutralised by dropwise addition of 0.2 N methanolic NH4OH and evaporated down in a stream of N2. The samples were stored at −80° C. until required.
(§4) Aminopropyl phase (250 mg) was packed into 16 ml teflon columns with teflon frits placed at the top and bottom of the bonded phase. Columns were placed in a Vac Elut apparatus and washed twice with 2 ml portions of hexane (Prasad et al., 1988, J Chromato 428: 221-228; Kaluzny et al., 1985, J Lipid Res 26: 135-140). The dry lipid samples were taken up in two 0.150 ml portions of chloroform and applied to the column under atmospheric pressure. After adsorption the neutral lipids were eluted with 4 ml of chloroform-2-propanol (2:1, v/v) and the free fatty acids eluted with 4 ml of 2% acetic acid in diethyl ether. The solvent containing the free fatty acids was dried under a stream of N2.
Determination of tissue free fatty acids and triacylglycerol concentration by enzymatic analyses. Free fatty acids were separated from total lipid, evaporated under a stream of N2 and stored at −80° C. until analysis. Samples were dissolved in 50 μl of warm ethanol (35-40° C.), and 0.625 ml of a Triton X-100 (6% w/v) solution was added once the ethanol reached room temperature. The solution was stirred for 30 min, then made up to 0.825 ml with the Triton solution. Free fatty acids were quantified using a commercial method (Boehringer Mannheim) adapted for micro analyses (Cobas Mira, Roche Diagnostics), with palmitic acid standards. Triacyl glycerol levels were quantified in the total lipid fraction (Pointe Scientific) with a glycerol standard.
Total lipid was extracted and quantitated. Results are shown in FIGS. 18A NEFA and 18B triglyceride.

[2] = tested on: soleus muscle; assay: Lipid metabolites (free fatty acid, glycerol, triglyceride; enzymatic analysis) in isolated soleus muscle from normally fed rats; type: cell-based, rat; conditions: soleus, normally fed rats, 100 nM amylin or CGRP-1, 4.4 μM norepinephrine
[3] = tested on: soleus muscle; assay: Individual free fatty acids by gas chromatography in soleus muscle of rats fed high fat diets; design: species or system rat; conditions: 1 hour, GC
Text: as §1, §2, §3, §4
Gas-liquid chromatographic analysis. Dry free fatty acid residues were processed for derivatisation of methyl esters by the boron trifluoride-methanol method (Prasad, supra). 1 ml of boron trifluoride in methanol (BF3) was added to each sample, the sample vials were heated at 70° C. for 5 minutes, shaken vigorously, and baked for a further 10 minutes. Once the samples reached room temperature 0.5 ml milli Q water was added, the sample vials shaken, 0.1 ml heptane was added and the sample shaken again. 0.05 ml of the top heptane layer was removed for GLC analysis. A Model HP5890 Plus Series 2 (Hewlett-Packard) gas chromatograph equipped with a DB-225 column was used to separate the methyl esters of the fatty acids and a Model HP 5890 GC with a Model HP 5973 MS (Hewlett-Packard) GC/MS used to confirm the identity of individual free fatty acids. […]

[4] = rats fed diet high in olive oil

NC[C@H](O)c1ccc(O)c(O)c1 [Norepinephrine, norepinephrine]
soleus muscle triglyceride content ([1]; control 1.14±0.16): 0.69 ± 0.09 µmol/g
soleus muscle free fatty acid content ([1]; control 43±8): 75 ± 7 nmol/g
triacylglycerol (triglyceride) content ([2]; 60-min, control 1.17±0.15, not significant): 0.81 ± 0.09 µmol/g
intramuscular free fatty acid content ([2]; 1 h, 23.7 nM insulin, control 78±21): 295 ± 27 nmol/g
intramuscular glycerol content ([2]; 1 h, control 0.07±0.007): 0.04 ± 0.005 nmol/g
free fatty acid adrenic C22:4 ([3]; rats fed diet high in corn oil): 0.05 ± 0.004 nmol/g wwt
free fatty acid arachidic C20:0 ([3]; rats fed diet high in corn oil): 0.03 ± 0.002 nmol/g wwt
free fatty acid arachidonic C20:4 ([3]; rats fed diet high in corn oil): 0.08 ± 0.009 nmol/g wwt
free fatty acid cervonic C22:6 ([3]; rats fed diet high in corn oil): 0.04 ± 0.003 nmol/g wwt
free fatty acid linoleic C18:2 ([3]; rats fed diet high in corn oil): 0.14 ± 0.02 nmol/g wwt
free fatty acid linolenic C18:3 ([3]; rats fed diet high in corn oil): 0.13 ± 0.01 nmol/g wwt
free fatty acid margaric C17:0 ([3]; rats fed diet high in corn oil): 0.04 ± 0.006 nmol/g wwt
free fatty acid myristic C14:0 ([3]; rats fed diet high in corn oil): 0.02 ± 0.002 nmol/g wwt
free fatty acid oleic C18:1 ([3]; rats fed diet high in corn oil): 0.12 ± 0.02 nmol/g wwt
free fatty acid palmitic C16:0 ([3]; rats fed diet high in corn oil): 0.09 ± 0.01 nmol/g wwt
free fatty acid palmitoleic (n-7) C16:1 ([3]; rats fed diet high in corn oil): 0.007 ± 0.0005 nmol/g wwt
free fatty acid palmitoleic (n-9) C16:1 ([3]; rats fed diet high in corn oil): 0.15 ± 0.01 nmol/g wwt
free fatty acid pentadecanoic C15:0 ([3]; rats fed diet high in corn oil): 0.04 ± 0.005 nmol/g wwt
free fatty acid stearic C18:0 ([3]; rats fed diet high in corn oil): 0.11 ± 0.008 nmol/g wwt
free fatty acid timnodonic C20:5 ([3]; rats fed diet high in corn oil): 0.05 ± 0.005 nmol/g wwt
free fatty acid vaccenic C18:1 ([3]; rats fed diet high in corn oil): 0.02 ± 0.001 nmol/g wwt
free fatty acid adrenic C22:4 ([3]; rats fed diet high in lard): 0.02 ± 0.003 nmol/g wwt
free fatty acid arachidic C20:0 ([3]; rats fed diet high in lard): 0.03 ± 0.004 nmol/g wwt
free fatty acid arachidonic C20:4 ([3]; rats fed diet high in lard): 0.012 ± 0.003 nmol/g wwt
free fatty acid cervonic C22:6 ([3]; rats fed diet high in lard): 0.01 ± 0.001 nmol/g wwt
free fatty acid linoleic C18:2 ([3]; rats fed diet high in lard): 0.09 ± 0.003 nmol/g wwt
free fatty acid margaric C17:0 ([3]; rats fed diet high in lard): 0.08 ± 0.008 nmol/g wwt
free fatty acid myristic C14:0 ([3]; rats fed diet high in lard): 0.04 ± 0.007 nmol/g wwt
free fatty acid oleic C18:1 ([3]; rats fed diet high in lard): 0.21 ± 0.01 nmol/g wwt
free fatty acid palmitic C16:0 ([3]; rats fed diet high in lard): 0.23 ± 0.02 nmol/g wwt
free fatty acid palmitoleic (n-7) C16:1 ([3]; rats fed diet high in lard): 0.02 ± 0.0008 nmol/g wwt
free fatty acid palmitoleic (n-9) C16:1 ([3]; rats fed diet high in lard): 0.01 ± 0.001 nmol/g wwt
free fatty acid pentadecanoic C15:0 ([3]; rats fed diet high in lard): 0.13 ± 0.02 nmol/g wwt
free fatty acid stearic C18:0 ([3]; rats fed diet high in lard): 0.22 ± 0.01 nmol/g wwt
free fatty acid timnodonic C20:5 ([3]; rats fed diet high in lard): 0.02 ± 0.004 nmol/g wwt
free fatty acid vaccenic C18:1 ([3]; rats fed diet high in lard): 0.07 ± 0.003 nmol/g wwt
free fatty acid adrenic C22:4 [3, 4]: 0.02 ± 0.0007 nmol/g wwt
free fatty acid arachidic C20:0 [3, 4]: 0.009 ± 0.0004 nmol/g wwt
free fatty acid arachidonic C20:4 [3, 4]: 0.03 ± 0.0008 nmol/g wwt
free fatty acid cervonic C22:6 [3, 4]: 0.12 ± 0.03 nmol/g wwt
free fatty acid linoleic C18:2 [3, 4]: 0.04 ± 0.009 nmol/g wwt
free fatty acid linolenic C18:3 [3, 4]: 0.04 ± 0.01 nmol/g wwt
free fatty acid margaric C17:0 [3, 4]: 0.01 ± 0.001 nmol/g wwt
free fatty acid myristic C14:0 [3, 4]: 0.005 ± 0.0002 nmol/g wwt
free fatty acid oleic C18:1 [3, 4]: 0.28 ± 0.03 nmol/g wwt
free fatty acid palmitic C16:0 [3, 4]: 0.19 ± 0.002 nmol/g wwt
free fatty acid palmitoleic (n-7) C16:1 [3, 4]: 0.03 ± 0.009 nmol/g wwt
free fatty acid palmitoleic (n-9) C16:1 [3, 4]: 0.23 ± 0.01 nmol/g wwt
free fatty acid pentadecanoic C15:0 [3, 4]: 0.01 ± 0.0004 nmol/g wwt
free fatty acid stearic C18:0 [3, 4]: 0.16 ± 0.006 nmol/g wwt
free fatty acid timnodonic C20:5 [3, 4]: 0.04 ± 0.004 nmol/g wwt
free fatty acid vaccenic C18:1 [3, 4]: 0.2 ± 0.003 nmol/g wwt
